Key:
Format in all cases: cell-based, human
[1] = tested on: TfR1; assay: TfR1 palmitoylation assay in cultured skin fibroblasts
Description: (§1) Skin fibroblasts were grown in Dulbecco's Modified Eagle Medium (DMEM, Life technologies) medium supplemented with 10% fetal bovine serum (FBS), 2 mM L-glutamine, 2.5 mM pyruvate, 100 μg/ml streptomycin, 100 U/ml penicillin at 37° C. For treatment with ferric ammonium citrate (FAC), 80% confluent cells were incubated for 72 h with or without 100 μM FAC in serum-free DMEM (i.e. Tf free). For drug treatment, 80% confluent cells were incubated in DMEM+10% FBS supplemented with 25 μM artesunate (Sigma) in DMSO for 48 h, 25 μM CoA (Sigma) for 72 h and 5 mM DCA (Sigma) for 72 h.
TfR1 palmitoylation in cultured skin fibroblasts was modified from (Ba et al., 2012). Briefly, cells were lysed on ice in a DTT-free cell lysis buffer and endogenous TfR1 was immunoprecipitated overnight with mouse anti-TfR1 antibody (Life Technologies, 136890) with protein G magnetic beads (BioRad). After washing with PBS, beads were successively incubated 2 h with 50 mM N-ethylmaleimide (NEM) at room temperature, 1 M hydroxylamine and 50 mM HPDP-Biotin (Thermo) in dark for 2 hours. Samples were run in 12% acrylamide gel and biotin-labeled TfR1 level was determined by immunoblotting in non-reducing conditions using Chemidoc technology thanks to a CCD camera (BioRad) and ImageLab software v3.0 (BioRad).

[2] = tested on: TfR1; assay: Western blot of TfR1 steady-state level in fibroblasts; details: for steady state level of TfR1: CoA 25 μM 72 h, DCA 5 mM 72 h, artesunate 25 μM 48 h
Description: as §1
(§2) Cultured skin fibroblasts were harvested on ice by scraping in reducing (2 μM dithiothreitol, DTT, denaturation at 95° C. for 5 min) or non-reducing cell lysis buffer (no DTT, no heat denaturation). Western bot analysis was performed on 20 μg of whole-cell protein extracts or mitochondrial-enriched fractions in 12% acrylamide gel or 4-15% gel gradient. Immunodetections were performed in PBS with 5% or 1% milk, 0.05% Tween20 (SIGMA) using the following antibodies: rabbit anti-SOD1 (Abcam, ab16831), rabbit anti-SOD2 (Abcam, ab13533), mouse anti-TfR1 (Invitrogen, 13-6800), rabbit anti-TfR1 (Abcam, 108985), rabbit anti-ferritin (Abcam, ab75973), rabbit anti-IRP1 (Abcam, ab126595), rabbit anti-IRP2 (Abcam, ab80339), rabbit anti-FBXL5 (Abcam, ab140175), rabbit anti-FDXR (Abcam, 204310), rabbit anti-FXN (Protein tech, 14147-1-AP), rabbit anti-PDH E2 subunit (Abcam, ab172617), rabbit anti-lipoic acid (Abcam, ab58724), goat anti-Biotin (Thermo, 31852), mouse anti-VDAC/Porine (Abcam, ab14734)
(§3) mouse anti-ATP5a (Abcam, ab14748), mouse anti-Vinculin (abeam, ab130007), rabbit anti-TFAM (Proteintech, 19998-1-AP), rabbit ATP8 (Proteintech, 26723-1-AP) and mouse anti-GAPDH antibodies (ab8245). Blots were incubated with fluorescent secondary antibodies (IRDye 800CW/680LT Goat anti-rabbit or anti-mouse IgG (LI-COR)) or HRP-conjugated secondary antibodies (goat anti-rabbit IgG HRP (Abcam), goat anti-mouse IgG HRP (Abcam) or donkey anti-goat IgG HRP (Santa Cruz)) before ECL-based detection (SuperSignal West Dura, Thermo Scientific). Signals captured either with the Odyssey Infrared Imaging System using Image Studio Lite v5.2 (LI-COR Biosciences) or with CDD camera using Image Lab v3.0 (BioRad).

[3] = tested on: fibroblasts (cellular iron content); assay: Ferrozine-based iron quantification in fibroblasts; details: for iron content: control cells
Description: as §1
(§4) Total iron contents were measured using a ferrozine-based iron assay modified from (Barbeito et al., 2010). For imaging flow cytometry, fibroblasts were starved for one hour in FBS-free DMEM medium, treated with 5 mM EDTA for harvesting them without disrupting TfR1 located at cell surface, as trypsin does, washed 3 times with cold PBS and then labelled with anti-TfR1 antibodies (A24) (Moura et al., 2004) for 1 h on ice to avoid TfR1 internalization. In this condition, only membrane-bound TfR1 is quantified. Secondary staining was performed using Alexa fluor 488 goat anti-mouse antibody (Life technology) for 30 min on ice. Cells were washed and stained with Hoechst for 5 min in a total volume of 50 μl and acquisitions were directly performed. Cell analysis was based on Hoechst-positive signal, allowing to select living cells. Samples were run on an Imagestream ISX mkII (Amnis Corp, Millipore, Seattle, WA) that combines flow cytometry with detailed cell-imaging and functional studies and a 40× magnification was used for all acquisitions. Data were acquired using the INSPIRE software (Amnis Corp) and analyzed using the IDEAS™ software (version 6.2 Amnis Corp) on at least 20,000 events. Spectral compensation was performed using singly stained samples. A specific mask was designed for analysis of the membrane localization of TfR1. This mask was the result of a full bright field mask minus a 5 pixels erode and 1 pixel dilate bright mask resulting in doughnuts-like mask. Results were expressed as mean pixel intensity value which is the intensity normalized to surface area.

[4] = tested on: membrane-bound TfR1; assay: Imaging flow cytometry (Imagestream) of membrane-bound TfR1 in fibroblasts
Description: as §1
Fibroblasts were starved for one hour in FBS-free DMEM medium (i.e. Tf-free), treated with 5 mM EDTA for harvesting them without disrupting TfR1 located at cell surface, as trypsin does, and then labelled with anti-TfR1 antibody at 4° C. to avoid TfR1 internalization. In this condition only membrane-bound TfR1 is quantified. Cell sorting was based on Hoechst-positive signal, allowing to select living cells.
as §4, with “Samples were run on an Imagestream ISX mkII (Amnis Corp, Millipore, Seattle, WA) that combines flow cytometry with detailed cell-imaging and functional studies and a 40× magnification was used for all acquisitions.” left out, “Spectral compensation was performed using singly stained samples. A specific mask was designed for analysis of the membrane localization of TfR1. This mask was the result of a full bright field mask minus a 5 pixels erode and 1 pixel dilate bright mask resulting in doughnuts-like mask.” left out

[5] = tested on: PBMC (iron content); assay: Ferrozine-based iron quantification in PBMC grown in high iron medium; details: 40 h in high iron medium (100 μM FAC), artesunate 25 μM
Description: PBMC were isolated from 8 ml blood samples by density centrifugation using Ficoll (GE Healthcare) and grown 2 h in regular DMEM before treatment with 100 μM FAC for different time.
as §4, with “Samples were run on an Imagestream ISX mkII (Amnis Corp, Millipore, Seattle, WA) that combines flow cytometry with detailed cell-imaging and functional studies and a 40× magnification was used for all acquisitions.” left out, “Spectral compensation was performed using singly stained samples. A specific mask was designed for analysis of the membrane localization of TfR1. This mask was the result of a full bright field mask minus a 5 pixels erode and 1 pixel dilate bright mask resulting in doughnuts-like mask.” left out

[6] = tested on: ferritin, FBXL5, SOD2, IRP1-2; assay: Western blot of proteins involved in iron homeostasis and antioxidant defense in fibroblasts; details: artesunate 25 μM for 48 h
Description: as §1, §2, §3

[7] = tested on: fibroblasts (Tf recycling); assay: Transferrin (Tf) recycling by spinning-disk confocal microscopy in fibroblasts
Description: as §1
For Tf recycling, fibroblasts were spread at 30% confluence onto micro-slides glass bottom (IBIDI) 24 h before experiment. Cells were then starved in FBS-free DMEM media for 1 h before add Tf-RED (12.5 μg/mL) for 30 min at 37° C. Cells were washed with PBS and then incubated for in regular media for live-imaging acquisition using spinning disk confocal microscopy (ZEISS Microscopy). Slides were placed un incubation chamber at 37° C. under 5% CO2. At least 20 cells were acquired by condition using 63× oil immersion objective lens with a picture of cell/min during 40 min using Zen software. The nuclear region (NR) was defined using Icy software v1.9. […] PNROI masks were then applied on RED channel by spot detector plugin to obtain quantitative mean fluorescence particle intensity. […]

[8] = FRDA fibroblasts, artesunate 25 μM for 48 h
[9] = control cells, artesunate 25 μM for 48 h

CC(C)(COP(=O)(O)OP(=O)(O)OC[C@H]1O[C@@H](n2cnc3c(N)ncnc32)[C@H](O)[C@@H]1OP(=O)(O)O)[C@@H](O)C(=O)NCCC(=O)NCCS [CoA, [[(2R,3S,4R,5R)-5-(6-aminopurin-9-yl)-4-hydroxy-3-phosphonooxyoxolan-2-yl]methoxy-hydroxyphosphoryl][(3R)-3-hydroxy-2,2-dimethyl-4-oxo-4-[[3-oxo-3-(2-sulfanylethylamino)propyl]amino]butyl]hydrogen phosphate] was tested, and the “increase of TfR1 palmitoylation” value ([1]; FRDA fibroblasts, CoA 25 μM for 72 h) was 2.1 to 3.2 fold, the “steady state level of TfR1” value ([2]; FRDA fibroblasts) was “decreased” and the “decrease of cellular iron content” value ([3]; FRDA fibroblasts, high iron conditions (+FAC), CoA 25 μM for 72 h) was 1.6-2.4 fold. For the same compound, the “membrane TfR1 accumulation” value ([4]; summary statement in discussion, conditions not given) was “reduced”.
In the case of C[C@H]1[C@H](OC(=O)CCC(=O)O)O[C@@H]2O[C@@]3(C)CC[C@H]4[C@H](C)CC[C@@H]1[C@@]24OO3 [artesunate, (3R,5aS,6R,8aS,9R,10S,12R,12aR)-Decahydro-3,6,9-trimetyl-3,12-epoxy-12H-pyrano[4,3-j]-1,2-benzodioxepin-10-ol, hydrogen succinate], the “TfR1 palmitoylation relative to controls” value [1, 8] is reported as 80 % of controls, the TfR1 palmitoylation ([1]; control cells, artesunate treatment) is reported as “slight but non-significant decrease” and the “iron content of PBMC” value ([5]; FRDA PBMCs) is reported as “two-fold decrease”. The “iron content of PBMC” value ([5]; control PBMCs) was “two-fold decrease”, the “FBXL5 steady state level” value ([6]; FRDA fibroblasts) was “returned to control values” and the “IRP1-2 steady state levels” value ([6]; FRDA fibroblasts) was “not modified”. The “SOD2 steady state level” value ([6]; FRDA fibroblasts) was “decreased”, the “ferritin steady state level” value ([6]; FRDA fibroblasts) was “returned to control values” and the “FBXL5 steady state level” value ([6]; control cells) was “not modified”. The “ferritin steady state level” value ([6]; control cells) was “not modified”, the “Tf recycling (Tf-Alexa555 signal)” value [7, 8] was “complete rescue” and the Tf recycling ([7]; control cells treated with artesunate) was “slight delay”. For the same compound, the “TfR1 steady-state level relative to control values in artesunate-free medium” value ([2]; FRDA fibroblasts, regular DMEM, artesunate 25 μM for 48 h) was 136 % of control values, the “steady state level of TfR1” value ([2]; FRDA fibroblasts) was “significantly decreased” and the TfR1 steady-state level [2, 9] was “slight increase”. The “cellular iron content relative to initial cellular iron content” value ([3]; FRDA fibroblasts, basal conditions, artesunate 25 μM for 48 h) was 62-79 % of initial cellular iron content, the “decrease of cellular iron content” value ([3]; FRDA fibroblasts, high iron condition (100 μM FAC), 25 μM artesunate for 48 h) was 71-79% and the iron content ([3]; basal conditions, artesunate 25 μM for 48 h) was “light but non-significant increase”. The iron content ([3]; high iron conditions (100 μM FAC), 25 μM artesunate) was “decreased”, the “decrease of membrane TfR1” value [4, 8] was 15-30% and the “increase of membrane TfR1” value [4, 9] was 1.1 to 1.3 fold.
